Patent publication EP0486749A1, “Triarylmethane compounds and pressure sensitive recording material” (HODOGAYA CHEMICAL CO., LTD., priority 1991, dated 1992)

What was measured:
[1] = Color formation on silica gel (TLC) and light resistance of the formed color; conditions: for light resistance: color formed on silica gel TLC
Procedure: The color in the Table is the color formed on silica gel.
To a dilute hydrochloric acid aqueous solution prepared by diluting 25 parts of 35% hydrochloric acid with 130 parts of water, 30 parts of 4,4'-bisdimethylaminobenzhydrol and 22 parts of methyl 3-dimethylaminobenzoate were dissolved and reacted at a temperature of from 50 to 60°C for 5 hours. Then, 10 parts of active carbon was added thereto, and the mixture was thoroughly mixed. After removing active carbon by filtration, 150 parts of 10% sodium hydroxide and 100 parts of toluene were added to the filtrate and thoroughly mixed. The toluene layer was separated, then washed with 100 parts of water and separated. Then, this toluene layer was thoroughly dried over anhydrous sodium salfate. Then, this toluene layer was concentrated, and 100 parts of methanol was added to the residue thereby obtained. Precipitated crystals were collected by filtration and recrystallized from a solvent mixture comprising 50 parts of methanol and 50 parts of acetone to obtain 35 parts of bis((4-dimethylamino)phenyl)-(2-methoxycarbonyl-4-dimethylaminophenyl)methane.

[2] = Solubility of the color former in oil (KMC-113); type: physicochemical; conditions: in KMC-113 at 50°C
Description: To examine the solubility of a color former in oil, the solubility of benzoylleucomethylene blue in KMC-113 (product of Kureha Chemical Industries Co., Ltd.) as a typical solvent commonly employed, was investigated.
To examine the solubility in oil of the triarylmethane compounds of the present invention, the solubility in KMC-113 (product of Kureha Chemical Industries Co., Ltd.) as a typical solvent was examined.

SMILES | light resistance [1] | color formed on silica gel TLC [1] | solubility [2]
COC(=O)c1cc(N(C)C)ccc1C(c1ccc(N(C)C)cc1)c1ccc(N(C)C)cc1 [Preparation Example 1, bis((4-dimethylamino)phenyl)-(2-methoxycarbonyl-4-dimethylaminophenyl)methane] | excellent | gradually formed a clear blue color | at least 10%
CC(C)OC(=O)c1cc(N(C)C)ccc1C(c1ccc(N(C)C)cc1)c1ccc(N(C)C)cc1 [Preparation Example 2, bis((4-dimethylamino)phenyl)-(2-isopropoxycarbonyl-4-dimethylaminophenyl)methane] | excellent | gradually formed a clear blue color | at least 10%
CCCCOC(=O)c1cc(N(C)C)ccc1C(c1ccc(N(C)C)cc1)c1ccc(N(C)C)cc1 [Preparation Example 3, bis((4-dimethylamino)phenyl)-(2-n-butoxycarbonyl-4-dimethylaminophenyl)methane] | excellent | gradually formed a clear blue color | at least 10%
COC(=O)c1cc(N(C)C)ccc1C(c1ccc(N(C)C)cc1C)c1ccc(N(C)C)cc1C [Preparation Example 4, bis((2-methyl-4-dimethylamino)phenyl)-(2-methoxycarbonyl-4-dimethylaminophenyl)methane] | excellent | gradually formed a clear blue color | –
CCOC(=O)c1cc(N(C)C)ccc1C(c1ccc(N(C)C)cc1C)c1ccc(N(C)C)cc1C [Preparation Example 5, bis((2-methyl-4-dimethylamino)phenyl)-(2-ethoxycarbonyl-4-dimethylaminophenyl)methane] | excellent | gradually formed a clear blue color | –
CN(C)c1ccc2c(c1)Sc1cc(N(C)C)ccc1N2C(=O)c1ccccc1 [benzoylleucomethylene blue, reference compound] | – | – | 2.5%
